# Source: patent publication US12077503B2, “Substituted cyclic amides and their use as herbicides” (FMC CORPORATION, priority 2015, dated 2024)
# Assays:
# Type in all cases: in vivo
# [1] = system: Kochia (Kochia scoparia); test: Test A preemergence; details: for Plant response rating, Kochia: 125 g ai/ha
# Text: (§1) Seeds of plant species selected from barnyardgrass (Echinochloa crus-galli), Kochia (Kochia scoparia), ragweed (common ragweed, Ambrosia elatior), ryegrass, Italian (Italian ryegrass, Lolium multiflorum), crabgrass, large (Digitaria sanguinalis), giant foxtail (Setaria faberii), green foxtail (Setaria viridis), morningglory (Ipomoea spp.), pigweed (Amaranthus retroflexus), velvetleaf (Abutilon theophrasti), wheat (Triticum aestivum), and corn (Zea mays) were planted into a blend of loam soil and sand and treated preemergence with a directed soil spray using test chemicals formulated in anon-phytotoxic solvent mixture which included a surfactant.
# (§2) At the same time, plants selected from these crop and weed species and also blackgrass (Alopecurus myosuroides), and Galium (catchweed bedstraw, Galium aparine) were planted in pots containing the same blend of loam soil and sand and treated with postemergence applications of test chemicals formulated in the same manner. Plants ranged in height from 2 to 10 cm and were in the one- to two-leaf stage for the postemergence treatment. Treated plants and untreated controls were maintained in a greenhouse for approximately 10 d, after which time all treated plants were compared to untreated controls and visually evaluated for injury. Plant response ratings, summarized in Table A, are based on a 0 to 100 scale where 0 is no effect and 100 is complete control. A dash (-) response means no test result.
# [2] = system: barnyardgrass (Echinochloa crus-galli); test: Test A preemergence; details: for Plant response rating, Barnyardgrass: 125 g ai/ha
# Text: as §1, §2
# [3] = system: giant foxtail (Setaria faberii); test: Test A preemergence; details: for Plant response rating, Foxtail, Giant: 125 g ai/ha
# Text: as §1, §2
# [4] = system: pigweed (Amaranthus retroflexus); test: Test A preemergence; details: for Plant response rating, Pigweed: 125 g ai/ha
# Text: as §1, §2
# [5] = system: ragweed (common ragweed, Ambrosia elatior); test: Test A preemergence; details: for Plant response rating, Ragweed: 125 g ai/ha
# Text: as §1, §2
# [6] = system: ryegrass, Italian (Italian ryegrass, Lolium multiflorum); test: Test A preemergence; details: for Plant response rating, Ryegrass, Italian: 125 g ai/ha
# Text: as §1, §2
# [7] = system: Galium (catchweed bedstraw, Galium aparine); test: Test A postemergence
# Text: as §1, §2
# [8] = system: Kochia (Kochia scoparia); test: Test A postemergence
# Text: as §1, §2
# [9] = system: barnyardgrass (Echinochloa crus-galli); test: Test A postemergence
# Text: as §1, §2
# [10] = system: blackgrass (Alopecurus myosuroides); test: Test A postemergence
# Text: as §1, §2
# [11] = system: corn (Zea mays); test: Test A postemergence
# Text: as §1, §2
# [12] = system: giant foxtail (Setaria faberii); test: Test A postemergence
# Text: as §1, §2
# [13] = system: pigweed (Amaranthus retroflexus); test: Test A postemergence
# Text: as §1, §2
# [14] = system: ragweed (common ragweed, Ambrosia elatior); test: Test A postemergence
# Text: as §1, §2
# [15] = system: ryegrass, Italian (Italian ryegrass, Lolium multiflorum); test: Test A postemergence
# Text: as §1, §2
# [16] = system: wheat (Triticum aestivum); test: Test A postemergence
# Text: as §1, §2
# [17] = system: barnyardgrass (Echinochloa crus-galli); test: Test B flooded paddy test; details: Flood, 250 g ai/ha; 0 to 100 scale where 0 is no effect and 100 is complete control; 13 to 15 d
# Experimental: (§3) Plant species in the flooded paddy test selected from rice (Oryra sativa), sedge, umbrella (small-flower umbrella sedge, Cyperus difformis), ducksalad (Heteranthera limosa), and barnyardgrass (Echinochloa crus-galli) were grown to the 2-leaf stage for testing. At time of treatment, test pots were flooded to 3 cm above the soil surface, treated by application of test compounds directly to the paddy water, and then maintained at that water depth for the duration of the test. Treated plants and controls were maintained in a greenhouse for 13 to 15 d, after which time all species were compared to controls and visually evaluated. Plant response ratings, summarized in Table B, are based on a scale of 0 to 100 where 0 is no effect and 100 is complete control. A dash (-) response means no test result.
# [18] = system: ducksalad (Heteranthera limosa); test: Test B flooded paddy test; details: Flood, 250 g ai/ha; 0 to 100 scale where 0 is no effect and 100 is complete control; 13 to 15 d
# Experimental: as §3
# [19] = system: rice (Oryra sativa); test: Test B flooded paddy test; details: Flood, 250 g ai/ha; 0 to 100 scale where 0 is no effect and 100 is complete control; 13 to 15 d
# Experimental: as §3
# [20] = system: sedge, umbrella (small-flower umbrella sedge, Cyperus difformis); test: Test B flooded paddy test; details: Flood, 250 g ai/ha; 0 to 100 scale where 0 is no effect and 100 is complete control; 13 to 15 d
# Experimental: as §3
# [21] = preemergence, 0 to 100 scale (0 no effect, 100 complete control)
# [22] = Preemergence, 500 g ai/ha, 0 is no effect, 100 is complete control
# [23] = 500 g ai/ha, postemergence, 0 to 100 scale, 0 no effect, 100 complete control
# [24] = Postemergence, 125 g ai/ha, visual injury, 0 to 100 scale (0 no effect, 100 complete control), approx. 10 d
# [25] = Preemergence, visual injury after approximately 10 d, 0 to 100 scale where 0 is no effect and 100 is complete control
# [26] = Preemergence, 500 g ai/ha, visual injury approx. 10 d
# [27] = 125 g ai/ha, postemergence, visual injury rating on 0 to 100 scale (0 no effect, 100 complete control), approx. 10 d
# [28] = Postemergence, 500 g ai/ha, 0 to 100 scale where 0 is no effect and 100 is complete control
smiles,measurement,setting,value
O=C1NCC(c2ccccc2-c2ccccc2)C1C(=O)Nc1ccc(F)c(F)c1F (racemic) [Compound 382],"Plant response rating, Kochia",[1]; [21],0
same,Kochia plant response rating (0 to 100 scale),[1]; [22],0
same,"Plant response rating, Barnyardgrass",[2]; [21],0
same,Barnyardgrass plant response rating (0 to 100 scale),[2]; [22],50
same,"Plant response rating, Foxtail, Giant",[3]; [21],0
same,"Foxtail, Giant plant response rating (0 to 100 scale)",[3]; [22],30
same,"Plant response rating, Pigweed",[4]; [21],0
same,Pigweed plant response rating (0 to 100 scale),[4]; [22],0
same,"Plant response rating, Ragweed",[5]; [21],0
same,Ragweed plant response rating (0 to 100 scale),[5]; [22],0
same,"Plant response rating, Ryegrass, Italian",[6]; [21],0
same,"Ryegrass, Italian plant response rating (0 to 100 scale)",[6]; [22],0
same,"Plant response rating, Galium",[7]; [23],0
same,"Plant response rating, Galium",[7]; [24],0
same,"Plant response rating, Kochia",[8]; [23],0
same,"Plant response rating, Kochia",[8]; [24],0
same,"Plant response rating, Barnyardgrass",[9]; [23],20
same,"Plant response rating, Barnyardgrass",[9]; [24],0
same,"Plant response rating, Blackgrass",[10]; [23],0
same,"Plant response rating, Blackgrass",[10]; [24],0
same,"Plant response rating, Corn",[11]; [23],0
same,"Plant response rating, Corn",[11]; [24],0
same,"Plant response rating, Foxtail, Giant",[12]; [23],20
same,"Plant response rating, Foxtail, Giant",[12]; [24],0
same,"Plant response rating, Pigweed",[13]; [23],0
same,"Plant response rating, Pigweed",[13]; [24],0
same,"Plant response rating, Ragweed",[14]; [23],0
same,"Plant response rating, Ragweed",[14]; [24],0
same,"Plant response rating, Ryegrass, Italian",[15]; [23],0
same,"Plant response rating, Ryegrass, Italian",[15]; [24],0
same,"Plant response rating, Wheat",[16]; [23],0
same,"Plant response rating, Wheat",[16]; [24],0
same,"Plant response rating, Barnyardgrass",[17],0
same,"Plant response rating, Ducksalad",[18],0
same,"Plant response rating, Rice",[19],0
same,"Plant response rating, Sedge, Umbrella",[20],0
CC(C)c1ccc(C2CNC(=O)C2C(=O)Nc2ccccc2S(C)(=O)=O)cc1 (racemic) [Compound 500],"Plant response rating, Kochia",[1]; [25],50
same,"Kochia plant response rating (0 to 100 scale, 0 is no effect, 100 is complete control)",[1]; [26],50
same,"Plant response rating, Barnyardgrass",[2]; [25],0
same,"Barnyardgrass plant response rating (0 to 100 scale, 0 is no effect, 100 is complete control)",[2]; [26],40
same,"Plant response rating, Foxtail, Giant",[3]; [25],80
same,"Foxtail, Giant plant response rating (0 to 100 scale, 0 is no effect, 100 is complete control)",[3]; [26],90
same,"Plant response rating, Pigweed",[4]; [25],0
same,"Pigweed plant response rating (0 to 100 scale, 0 is no effect, 100 is complete control)",[4]; [26],20
same,"Plant response rating, Ragweed",[5]; [25],0
same,"Ragweed plant response rating (0 to 100 scale, 0 is no effect, 100 is complete control)",[5]; [26],0
same,"Plant response rating, Ryegrass, Italian",[6]; [25],0
same,"Ryegrass, Italian plant response rating (0 to 100 scale, 0 is no effect, 100 is complete control)",[6]; [26],0
same,Galium plant response rating,[7]; [27],0
same,"Plant response rating, Galium",[7]; [28],0
same,Kochia plant response rating,[8]; [27],0
same,"Plant response rating, Kochia",[8]; [28],20
same,Barnyardgrass plant response rating,[9]; [27],0
same,"Plant response rating, Barnyardgrass",[9]; [28],50
same,Blackgrass plant response rating,[10]; [27],0
same,"Plant response rating, Blackgrass",[10]; [28],0
same,Corn plant response rating,[11]; [27],0
same,"Plant response rating, Corn",[11]; [28],20
same,"Foxtail, Giant plant response rating",[12]; [27],0
same,"Plant response rating, Foxtail, Giant",[12]; [28],50
same,Pigweed plant response rating,[13]; [27],0
same,"Plant response rating, Pigweed",[13]; [28],0
same,Ragweed plant response rating,[14]; [27],0
same,"Plant response rating, Ragweed",[14]; [28],40
same,"Ryegrass, Italian plant response rating",[15]; [27],0
same,"Plant response rating, Ryegrass, Italian",[15]; [28],0
same,Wheat plant response rating,[16]; [27],0
same,"Plant response rating, Wheat",[16]; [28],20
same,"Plant response rating, Barnyardgrass",[17],0
same,"Plant response rating, Ducksalad",[18],65
same,"Plant response rating, Rice",[19],0
same,"Plant response rating, Sedge, Umbrella",[20],0
